Assay results reported in PMC12608155, “Discovery of Potential Antileishmanial Compounds Through Phenotypic Screening of an Alkaloid Library” (Molecules, 2025).
Like-named read-outs stand apart in the source and are kept apart here.

Key:
[1] = test system: L. donovani IRFP axenic amastigotes; assay: Primary single-concentration screening on axenic amastigotes, growth inhibition at 72 h; type: cell-based, Leishmania donovani; conditions: axenic amastigotes; for Growth Inhibition (%) at 72h, 1 µM_Exp1 / Growth Inhibition (%) at 72h, 1 µM_Exp2 / inhibition at 1 µM: 1 µM; for Growth Inhibition (%) at 72h, 10 µM_Exp1 / Growth Inhibition (%) at 72h, 10 µM_Exp2 / inhibition at 10 µM: 10 µM; for inhibition at 1 µM / inhibition at 10 µM: Leishmania donovani
[2] = test system: L. donovani IRFP axenic amastigotes; assay: Dose-response assay on axenic amastigotes; type: cell-based, Leishmania donovani
Procedure: The objective of the present study was to identify new antileishmanial drug candidates by screening a commercial library of plant-derived alkaloids using a platform based on axenic amastigotes of L. donovani IRFP—the causative agent of VL—genetically modified to emit infrared fluorescence during their viable stage (hereafter referred to as L. donovani IRFP). To this end, single-dose assays at 10 μM and 1 μM, as well as dose–response assays, were performed. Compounds showing significant activity in the initial screening were subsequently clustered according to chemical structure using the DataWarrior tool, and representative compounds were further evaluated in dose response assays against axenic amastigotes.
Female Balb/c mice aged from 6 to 8 weeks were intraperitoneally inoculated with 1.5 × 10^9 infective L. donovani IRFP metacyclic promastigotes. Between 8 and 12 weeks after infection, mice were humanely euthanised and bone marrow was collected from the femurs and tibias of both hind limbs. The bones were cut at both ends, and prewarmed PBS was flushed through the medullary cavity using a syringe fitted with a 27G needle, to extract the bone marrow cells. The resulting cell suspension was filtered through a 100 µm cell strainer and centrifuged at 2500 rpm for 10 min at room temperature. To obtain free amastigotes, the pelleted cells were resuspended within a 75 mL ventilated flask in amastigote culture medium (15 mM KCl; 136 mM KH2PO4; 10 mM K2HPO4.3H2O; 0.5 mM MgSO4.7 H2O; 24 mM NaHCO3; 22 mM glucose; 1 mM glutamine, 1x RPMI 1640 vitamin mix (Sigma-Aldrich, Merck, Darmstadt, Germany), 10 mM folic acid, […], 1x RPMI amino acid mix (Sigma-Aldrich, Merck, Darmstadt, Germany), […], antibiotic mixture, 25 mM MES, 10% FBS (Gibco, ThermoFisher Scientific, Waltham, MA, USA) and incubated at 37 °C in a humidified atmosphere containing 5% CO2 [46].
The efficacy of the selected compounds was assessed by measuring near-infrared fluorescence (700 nm) using an Odyssey Infrared Imaging System (Li-Cor, Lincoln, NE, USA) following the previously described protocols.

[3] = test system: L. donovani IRFP intramacrophagic amastigotes; assay: Dose-response assay on ex vivo infected splenic explants (intramacrophagic amastigotes); type: cell-based, Leishmania donovani; conditions: read-out: EC50 Intramacrophagic Amastigotes
[4] = test system: RAW 264.7; assay: Cytotoxicity in RAW 264.7 cells (alamarBlue, 72 h); conditions: read-out: CC50 RAW 264.7; 72 h, alamarBlue
Procedure: (§1) To this end, we calculated SIs from 16 preselected results from the ex vivo system. With this aim, dose–response curves were performed in duplicate across at least three independent experiments using RAW 264.7 mouse macrophages (as a model of host cells harboring amastigotes) and HepG2 (as a model for assessing systemic toxicity).
(§2) To evaluate the safety of the selected compounds, two cell lines were employed: RAW 264.7 (a mouse macrophage-derived cell line) and HepG2 (a human hepatoma cell line). Furthermore, to determine the intestinal tolerance relevant to potential oral administration, mouse intestinal organoids were prepared.
(§3) RAW 264.7 and HepG2 were routinely cultured under standard conditions. RAW 264.7 cells were maintained in RPMI medium (Gibco) supplemented with, 25 mM HEPES, 24 mM NaHCO3, 2 mM L-glutamine, mixture of antibiotics and 10% FBS. HepG2 cells were cultured in DMEM/F-12 (Gibco) and supplemented 10% of FBS. For cytotoxicity assays, 10,000 cells per well were seeded into 96-well plates and incubated overnight at 37 °C with 5% of CO2. Subsequently, 2-fold serial dilutions of the compounds were added and incubated for 72 h. Cell viability using the alamarBlue™ assay according to the manufacturer’s instructions, and fluorescence was measured with a Varioskan™ LUX microplate reader (ThermoFisher Scientific, Waltham, MA, USA). Non-linear regression analyses were performed using SigmaPlot^TM software (version 10.0) to calculate CC50. Data were obtained from at least three independent experiments performed in duplicate.

[5] = test system: HepG2; assay: Cytotoxicity in HepG2 cells (alamarBlue, 72 h); conditions: read-out: CC50 HepG2; 72 h, alamarBlue
Procedure: as §1, §2, §3

[6] = test system: mouse intestinal organoids; assay: Tolerance of mouse intestinal organoids (alamarBlue); type: cell-based; conditions: for CC50: 72 h incubation, Figure S4
Description: (§4) Mouse intestinal organoids were generated following protocols standardized previously. Briefly, to obtain adult intestine stem cells, C57BL/6 mice were humanely euthanized. A section of the duodenum was excised, rinsed in ice-cold PBS, and cut into small pieces for gentle dissociation using Gentle Cell Dissociation Reagent. Tissue fragments enriched in duodenal crypts and little tissue debris were microscopically selected and resuspended in a 1:1 mixture of Geltrex™ and IntestiCult™ Mouse Medium (Gibco, ThermoFisher Scientific, Waltham, MA, USA /Stemcell Technologies^TM, Vancouver, BC, Canada). Aliquots of 50 µL of this suspension were dispensed into the center of each well of a prewarmed 24-well plate to form domes containing organoids, which were then incubated to allow matrix polymerization. Then, […] of IntestiCult™ Mouse Medium was added to each well. The plate was incubated at 37 °C in a humidified atmosphere containing 5% CO2, and the culture medium was refreshed every 48 h. During this period, organoids continued to proliferate, and passaging was performed at a 1:4 ratio every 7–10 days.
(§5) To determine the in vitro tolerance to oral administration of the active compounds, a 384-well assay was adapted from the protocol described by Du and co-workers. Briefly, following medium removal, organoids were collected from the extracellular matrix using the same procedure as for passaging. The resulting pellet was resuspended in 3.2 mL of a 1:1 mixture of Geltrex™ LDEV-Free Reduced Growth Factor Basement Membrane Matrix (without phenol red, Gibco) and IntestiCult™ Mouse Medium. Using a chilled pipette dispenser, 8 µL of the organoid suspension was dispensed into pre-cooled 384-well plates, which were then gently agitated to evenly distribute the matrix. The plates were incubated at 37 °C for 10 min and then, 32 µL of IntestiCult™ Mouse Medium was added to each well. To prevent edge effects, 100 µL of sterile water was added to the perimeter wells. After 3 days of culture, 10 µL per well of the test compounds dissolved in IntestiCult™ Mouse Medium were added. Positive (0.03% H2O2) and negative (0.2% DMSO) controls were included in each assay. After 72 h of incubation, 5 µL of alamarBlue™ HS were added to each well, and fluorescence was measured after 24 h using a Varioskan™ LUX microplate reader. All assays were conducted in triplicate and repeated in at least three independent experiments.

[7] = Cytotoxicity in RAW 264.7 cells (alamarBlue, 72 h); conditions: mouse
Procedure: as §1, §2, §3

[8] = Cytotoxicity in HepG2 cells (alamarBlue, 72 h); conditions: human
Procedure: as §1, §2, §3

[9] = Tolerance of mouse intestinal organoids (alamarBlue); type: cell-based; conditions: C57BL/6, mouse
Description: as §4, §5

[10] = test system: axenic amastigotes of L. amazonensis; parameters: method as in PMID 25029171; conditions: compared with glucantime; cited from earlier work
[11] = test system: Leishmania amazonensis; parameters: method as in PMID 25029171; conditions: cited from earlier work
[12] = primary cultures of infected mouse splenocytes
[13] = Leishmania donovani, Splenocyte, primary cultures of infected mouse splenocytes

For `COc1ccc2c(C)c3[n+](cc2c1OC)CCc1cc2c(cc1-3)OCO2` [13-Methylberberine], the “Growth Inhibition (%) at 72h, 1 µM_Exp1” value ([1]; experiment 1, 72 h) was 58.33%, the “Growth Inhibition (%) at 72h, 1 µM_Exp2” value ([1]; experiment 2, 72 h) was 69.84% and the “Growth Inhibition (%) at 72h, 10 µM_Exp1” value ([1]; experiment 1, 72 h) was 86.05%. The “Growth Inhibition (%) at 72h, 10 µM_Exp2” value ([1]; experiment 2, 72 h) was 98.60%, the IC50 [2] was 500 ± 40 nM and the EC50 [3, 12] was 750 ± 20 nM. The CC50 [4] was over 10 µM, the CC50 [5] was 28.3 ± 9.18 µM and the CC50 [6] was over 10 µM.

In the case of `COc1ccc2c(c1OC)C(OC)N(C)c1c-2ccc2cc3c(cc12)OCO3` (stereo not drawn) [Angoline], the “Growth Inhibition (%) at 72h, 1 µM_Exp1” value ([1]; experiment 1, 72 h) is reported as 83.55%, the “Growth Inhibition (%) at 72h, 1 µM_Exp2” value ([1]; experiment 2, 72 h) is reported as 85.33% and the “Growth Inhibition (%) at 72h, 10 µM_Exp1” value ([1]; experiment 1, 72 h) is reported as 100.85%. For the same molecule, the “Growth Inhibition (%) at 72h, 10 µM_Exp2” value ([1]; experiment 2, 72 h) was 100.07%, the IC50 [2] was 120 ± 10 nM and the EC50 [3, 12] was 1150 ± 40 nM. For the same molecule, the CC50 [4] was 5.28 ± 0.28 µM, the CC50 [5] was 5.15 ± 0.21 µM and the CC50 [6] was 12.6 ± 0.6 µM. For the same molecule, the “Toxicity in mouse intestinal organoids (tolerance for oral administration)” value ([6]; in words) was “significant toxicity”.

In the case of `COc1ccc2cc3[n+](cc2c1OC)CCc1cc2c(cc1-3)OCO2` [Berberine], the IC50 ([2]; Leishmania donovani) is reported as 570 ± 80 nM, the EC50 [3, 13] is reported as 1760 ± 60 nM and the CC50 at 72 h ([7]; RAW 264.7 macrophage cells) is reported as over 20 µM. It also gave a CC50 at 72 h ([8]; HepG2 hepatoma cells) of over 20 µM and a CC50 at 72 h ([9]; mouse intestinal organoids (from duodenal crypts), 72 h incubation, Figure S4, read-out: CC50 mouse intestinal organoids) of over 25 µM.

Molecule `COc1ccc2c(c[n+](C)c3c4cc5c(cc4ccc23)OCO5)c1OC` [Chelerythrine] has an inhibition at 1 µM ([1]; experiment 1, 72 h, read-out: Growth Inhibition (%) at 72h, 1 µM_Exp1) of 97.2%, an inhibition at 1 µM ([1]; experiment 2, 72 h, read-out: Growth Inhibition (%) at 72h, 1 µM_Exp2) of 95.7% and an inhibition at 10 µM ([1]; experiment 1, 72 h, read-out: Growth Inhibition (%) at 72h, 10 µM_Exp1) of 100%. For the same molecule, the inhibition at 10 µM ([1]; experiment 2, 72 h, read-out: Growth Inhibition (%) at 72h, 10 µM_Exp2) was 101%, the IC50 ([2]; Leishmania donovani) was 80 ± 10 nM and the EC50 [3, 13] was 1610 ± 50 nM. The CC50 at 72 h [7] was 5.51 ± 0.16 µM, the CC50 at 72 h [8] was 5.5 ± 0.64 µM and the “in vitro IC50 values against axenic amastigotes of L. amazonensis” value [10] was “very similar to those of glucantime”. For the same molecule, the “antileishmanial effect in vivo” value [11] was “moderate”.

Molecule `c1c2c(cc3c1OCO3)-c1cc3ccc4c(c3c[n+]1CC2)OCO4` [Coptisine] has an IC50 ([2]; Leishmania donovani) of 2850 ± 250 nM, an EC50 ([3]; Leishmania donovani, Splenocyte, in Mus musculus) of 3390 ± 230 nM and a CC50 at 72 h [7] of over 10 µM. The CC50 at 72 h [8] was over 10 µM and the CC50 at 72 h [9] was over 25 µM.
